SMILES strings stand for the structures.

For one assay, the system named is transient ischemic rats. Briefly: Infarcted area in rats with transient ischemia (2 h middle cerebral artery occlusion, then reperfusion). Type of assay: in vivo. Conditions: 1 mg/ml. Here is the method:
Male rats were anesthetized with halothane mixed with nitrous oxide. The cervical region was dissected to ligate the left external carotid artery and the left common carotid artery. Occlusion was induced for 2 hours in the control section at the origin of the middle cerebral artery by inserting a nylon thread through the left internal carotid artery to reach the left middle deutocerebral artery. Reperfusion through the middle cerebral artery was established by withdrawing the nylon thread. The test compound was intravenously given to the animals in a volume of 1 ml/kg at 30 minutes after the occlusion. As the test compound, a solution of Compound 1 (1 mg/ml) in 8% polyethylene glycol #400 was used. For control, the vehicle (8% polyethylene glycol #400) containing no active compound was used. The animals were decapitated 22 hours after reperfusion and the brain was removed. Coronal sections of 2 mm thick were prepared in the ipsilateral hemisphere from 3 mm anterior to 5 mm posterior of the bregma. The sections were stained with 2,3,5-triphenyltetrazolium chloride for photographing. The photographs were scanned with a scanner (GT-8000, Epson) for computer-based image analysis (software used, Ep Scan Mac 1. 40). The rate of the infarcted area of each section in the left hemisphere was analyzed by a computer (software used, NIH image 1.59). The pharmacological effect was evaluated by mean percentage of the infarcted areas in the five sections obtained in one rat.
Compound 2 was elucidated for the effect on the infarcted area in a manner similar to that of Example 1. The test compound was intraperitoneally given 30 minutes before the occlusion to the animals in a volume of 1 ml/kg. As the test compound, a solution of Compound 2 (1 mg/ml) in 8% polyethylene glycol #400 was used. For control, the vehicle (8% polyethylene glycol #400) containing no active compound was used.
Compound 3 was elucidated for the effect on the infarcted area in a manner similar to that of Example 1. […]

Assay [1] relates to rats with transient ischemia. Nature of the assay: Brain edema (brain water content) in rats with transient ischemia. Type of assay: in vivo. The method, then:
Male rats were anesthetized with halothane mixed with nitrous oxide. The cervical region was dissected to ligate the left external carotid artery and the left common carotid artery. Occlusion was induced for 2 hours in the control section at the origin of the middle cerebral artery by inserting a nylon thread through the left internal carotid artery to reach the left middle deutocerebral artery. Reperfusion through the middle cerebral artery was established by withdrawing the nylon thread. The test compound was intravenously given to the animals an hour after the occlusion in a volume of 1 ml/kg. As the test compound, a solution of Compound 1 (0.3 mg/ml or 1 mg/ml) in 8% polyethylene glycol #400 was used. For control, the vehicle alone (8% polyethylene glycol #400) containing no active compound was used. The animals were decapitated 4 hours after reperfusion and the brain was removed. Coronal sections of 4 mm thick were prepared in the ipsilateral hemisphere from 1 mm anterior to 3 mm posterior of the bregma. After the wet weight (W) of each section was weighed, the section was dried in an oven at 110°C for 24 hours and then its dry weight (D) was weighed. The brain water content (WC) was calculated according to the following equation. WC = (W - D) / W x 100 [formula] In the normal control group, the brain water content was 79.9 ± 0.1% (mean ± standard error in 15 cases); however, by reperfusion following the occlusion, the brain water content in the control group increased to 83.3 ± 0.3% (mean + standard error in 15 cases).
Compound 2 was elucidated for the effect on brain edema in a manner similar to that of Example 4. The test compound was intravenously given immediately after the reperfusion to the animals in a volume of 1 ml/kg. As the test compound, a solution of Compound 2 (1 mg/ml) in 8% polyethylene glycol #400 was used. For control, the vehicle (8% polyethylene glycol #400) containing no active compound was used.
Compound 3 was elucidated for the effect on brain edema in a manner similar to that of Example 4. The test compound was intravenously given immediately after the reperfusion to the animals in a volume of 1 ml/kg. As the test compound, a solution of Compound 3 (0.3 mg/ml or 1 mg/ml) in 8% polyethylene glycol #400 was used. For control, the vehicle alone (8% polyethylene glycol #400) containing no active compound was used.

In the next assay the test system is cultured glial cells. As to conditions: Kempski et al., Stroke 19, 385-392, 1988; cited from earlier work.
Another assay has as its system ischemic animal models. Conditions: ischemic animal models in vivo; literature; cited from earlier work.

`Cn1c(C(=O)N=C(N)N)cc2ccccc21` [Compound 1, 1-methyl-2-indoloylguanidine methanesulfonate]: the “mean infarcted area observed in each section” value in the assay on transient ischemic rats (1 ml/kg intravenously 30 minutes after the occlusion, 22 hours after reperfusion, mean ± standard error in 8 cases, control group 47.9 ± 3.6%, p<5%) is 35.4 ± 3.1%. Besides, the brain water content is recorded as 82.6 ± 0.3% in assay [1] (0.3 mg/kg intravenously an hour after the occlusion, 4 hours after reperfusion, mean ± standard error in 16 cases, normal control 79.9 ± 0.1%, control group 83.3 ± 0.3%, p<1%) and 82.2 ± 0.3% in assay [1] (1 mg/kg intravenously an hour after the occlusion, 4 hours after reperfusion, mean ± standard error in 16 cases, normal control 79.9 ± 0.1%, control group 83.3 ± 0.3%, p<1%).

For the compound `Cc1cccc2c1cc(C(=O)N=C(N)N)n2C` [Compound 2, 1,4-dimethyl-2-indoloylguanidine methanesulfonate], the “infarcted area observed in each section” value in the assay with transient ischemic rats (1 ml/kg intraperitoneally 30 minutes before the occlusion, mean ± standard error in 5 cases, control group 49.5 ± 4.1%, p<1%) came out at 26.6 ± 3.1%. For the same compound, in assay [1] (1 mg/ml, 1 ml/kg intravenously immediately after the reperfusion, mean ± standard error in 11 cases, normal control 78.7 ± 0.1%, control group 81.9 ± 0.4%, no significant effect), the brain water content was found to be 82.0 ± 0.4%.

On to `N=C(N)NC(=O)c1nc(Cl)c(N)nc1N` [amiloride], for which, in the assay on cultured glial cells, the “cell swelling induced by acid loading” value is listed as “attenuated cell swelling”.

Turning to `CC(=O)Nc1nnc(S(N)(=O)=O)s1` [acetazolamide], the “cell swelling induced by acid loading” value with cultured glial cells is “cell swelling was prevented”. Also, the “effect of preventing cerebral edema” value in the assay with ischemic animal models is on record as “no significant effect of preventing cerebral edema”.

Take `N=C(N)NC(=O)c1cc2c(Cl)ccc3c2n1CCCCC3=O` [Compound 3, N-(aminoiminomethyl)-5,6,7,8-tetrahydro-11-chloro-8-oxo-4H-azocino[3,2,1-hi]indole-2-carboxamide methanesulfonate monohydrate]: the “infarcted area observed in each section” value with transient ischemic rats (1 ml/kg intraperitoneally immediately after the occlusion, mean ± standard error in 13 cases, control group 55.4 ± 2.1%, p<5%) is 45.2 ± 2.2%. Moreover, the brain water content in assay [1] (0.3 mg/kg intravenously immediately after the reperfusion, mean ± standard error in 9 cases, normal control 79.2 ± 0.2%, control group 82.8 ± 0.3%, tendency) is given as 82.4 ± 0.3%; in assay [1] (1 mg/kg intravenously immediately after the reperfusion, mean ± standard error in 11 cases, normal control 79.2 ± 0.2%, control group 82.8 ± 0.3%, tendency), 81.7 ± 0.4%.

The record behind these values is patent EP0937459A2, “Pharmaceutical compositions for the treatment of ischemic brain damage” (Sumitomo Pharmaceuticals Company, Limited, priority 1998, dated 1999).
